In test [1] the target is PI3K-δ (PI3K(p1108/p857) (h)) (Homo sapiens, UniProt O00329). The test is described as follows: Evaluation of inhibitory activity against PI3K-δ (HTRF kinase assay). In kind it is biochemical. The note with it: for inhibition at 0.01 µM: compound concentration 0.01 μM, read-out: EXP_VALUE(% Inhibition) PI3K-δ 0.01 μM; for inhibition at 0.1 µM: compound concentration 0.1 μM, read-out: EXP_VALUE(% Inhibition) PI3K-δ 0.1 μM. An outline of the steps:
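HTRF read-out (665/620 nm ratio ×10000) used Eu-labelled anti-GST, GST-tagged GRP1 PH domain and streptavidin-allophycocyanin after EDTA/PIP3 stop.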

In test [2] the target is DNA-PK(h) (Homo sapiens, UniProt P78527). Briefly: Evaluation of inhibitory activity against DNA-PK (HTRF kinase assay, GST-cMyc-p53 substrate). The note with it: for inhibition at 0.01 µM: compound concentration 0.01 μM, read-out: EXP_VALUE(% Inhibition) DNA-PK(h) 0.01 μM; for inhibition at 0.1 µM: compound concentration 0.1 μM, read-out: EXP_VALUE(% Inhibition) DNA-PK(h) 0.1 μM. It is filed as biochemical. The procedure, abridged:
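Human DNA-PK with 50 μM GST-cMyc-p53 substrate; reaction started with Mg/ATP, run 30 min at room temperature, stopped with EDTA. Phospho-Ser15 p53 detected by HTRF (Eu anti-phospho-Ser15, d2 anti-GST), signal = 10000×(Em 665/Em 620).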
(Time-resolved FRET reads energy transfer from a long-lived donor to a nearby acceptor.)

Each structure is given as a SMILES string.

Chain of PI3K-δ (PI3K(p1108/p857) (h)) (O00329 whole entry, the tested form may be a part): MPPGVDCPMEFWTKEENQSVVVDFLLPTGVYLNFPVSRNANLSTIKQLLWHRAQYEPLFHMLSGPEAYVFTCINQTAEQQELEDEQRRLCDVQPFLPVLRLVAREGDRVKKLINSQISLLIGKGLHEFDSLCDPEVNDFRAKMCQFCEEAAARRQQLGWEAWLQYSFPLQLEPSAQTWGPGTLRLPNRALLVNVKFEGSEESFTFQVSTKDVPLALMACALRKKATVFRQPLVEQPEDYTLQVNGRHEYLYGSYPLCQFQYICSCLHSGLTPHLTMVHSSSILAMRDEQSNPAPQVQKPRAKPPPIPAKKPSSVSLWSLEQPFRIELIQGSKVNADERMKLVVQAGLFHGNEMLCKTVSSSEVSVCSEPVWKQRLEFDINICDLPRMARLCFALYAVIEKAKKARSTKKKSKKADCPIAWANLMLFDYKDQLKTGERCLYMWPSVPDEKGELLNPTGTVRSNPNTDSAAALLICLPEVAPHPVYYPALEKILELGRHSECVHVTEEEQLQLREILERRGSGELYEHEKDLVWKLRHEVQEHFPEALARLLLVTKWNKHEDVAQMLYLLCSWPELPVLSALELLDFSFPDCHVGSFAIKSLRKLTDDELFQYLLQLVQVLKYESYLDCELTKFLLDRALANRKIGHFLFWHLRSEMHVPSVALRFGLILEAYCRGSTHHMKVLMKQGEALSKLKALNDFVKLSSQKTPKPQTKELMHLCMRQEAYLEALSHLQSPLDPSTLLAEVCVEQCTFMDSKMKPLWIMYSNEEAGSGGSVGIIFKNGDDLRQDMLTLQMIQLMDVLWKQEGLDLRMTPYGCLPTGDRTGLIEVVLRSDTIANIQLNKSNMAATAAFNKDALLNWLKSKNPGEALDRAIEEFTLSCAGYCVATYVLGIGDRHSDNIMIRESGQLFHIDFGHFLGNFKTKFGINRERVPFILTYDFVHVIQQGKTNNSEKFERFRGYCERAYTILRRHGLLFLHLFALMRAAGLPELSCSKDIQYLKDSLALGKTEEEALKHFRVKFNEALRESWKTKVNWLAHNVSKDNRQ
Chain of PI3K-δ (PI3K(p1108/p857) (h)) (P27986 whole entry partner, the tested form may be a part): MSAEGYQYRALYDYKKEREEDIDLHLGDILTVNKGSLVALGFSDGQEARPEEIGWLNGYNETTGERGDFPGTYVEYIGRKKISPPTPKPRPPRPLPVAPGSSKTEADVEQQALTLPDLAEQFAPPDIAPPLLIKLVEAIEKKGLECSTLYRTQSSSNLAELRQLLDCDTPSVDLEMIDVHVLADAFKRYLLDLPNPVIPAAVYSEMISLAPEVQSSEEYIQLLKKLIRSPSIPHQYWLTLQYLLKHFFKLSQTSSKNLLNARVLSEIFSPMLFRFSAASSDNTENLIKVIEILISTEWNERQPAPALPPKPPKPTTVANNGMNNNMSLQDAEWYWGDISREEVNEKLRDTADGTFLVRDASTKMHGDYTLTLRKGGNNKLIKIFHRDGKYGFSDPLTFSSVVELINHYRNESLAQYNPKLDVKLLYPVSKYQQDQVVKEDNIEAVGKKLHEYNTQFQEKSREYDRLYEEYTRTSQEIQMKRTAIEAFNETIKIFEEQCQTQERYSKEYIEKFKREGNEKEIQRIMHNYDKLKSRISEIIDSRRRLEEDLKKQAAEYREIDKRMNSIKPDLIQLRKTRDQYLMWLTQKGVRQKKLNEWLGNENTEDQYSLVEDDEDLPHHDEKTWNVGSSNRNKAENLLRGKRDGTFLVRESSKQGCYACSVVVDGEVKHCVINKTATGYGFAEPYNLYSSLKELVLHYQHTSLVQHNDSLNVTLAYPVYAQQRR

For the compound `C[C@H](Nc1ncnc2[nH]ccc(=O)c12)c1c(Cl)c2cccc(-c3cnc(C(F)(F)F)cn3)c2c(=O)n1-c1ccccc1` [Example 51, (S)-4-((1-(4-chloro-1-oxo-2-phenyl-8-(5-(trifluoromethyl)pyrazin-2-yl)-1,2-dihydroisoquinolin-3-yl)ethyl)amino)pyrido[2,3-d]pyrimidin-5(8H)-one], the inhibition at 0.01 µM in test [1] is 6%; in test [2] it was -15%.

Consider `C[C@H](Nc1ncnc2[nH]ccc(=O)c12)c1c(Cl)c2cccc(-c3ncc(C(F)(F)F)cn3)c2c(=O)n1-c1ccccc1` [Example 52, (S)-4-((1-(4-chloro-1-oxo-2-phenyl-8-(5-(trifluoromethyl)pyrimidin-2-yl)-1,2-dihydroisoquinolin-3-yl)ethyl)amino)pyrido[2,3-d]pyrimidin-5(8H)-one], for which the values for the inhibition at 0.01 µM in test [1] and in test [2] were 13% and -2%, respectively.

Regarding `C[C@H](Nc1ncnc2[nH]ccc(=O)c12)c1c(Cl)c2cccc(-c3ncc(F)cn3)c2c(=O)n1-c1ccccc1` [Example 53, (S)-4-((1-(4-chloro-8-(5-fluoropyrimidin-2-yl)-1-oxo-2-phenyl-1,2-dihydroisoquinolin-3-yl)ethyl)amino)pyrido[2,3-d]pyrimidin-5(8H)-one], the inhibition at 0.01 µM was 11% in test [1] and -3% in test [2].

With `C[C@H](Nc1ncnc2[nH]ccc(=O)c12)c1c(Cl)c2cccc(-c3cnc(C4CCC4)nc3)c2c(=O)n1-c1ccccc1` [Example 54, (S)-4-((1-(4-chloro-8-(2-cyclobutylpyrimidin-5-yl)-1-oxo-2-phenyl-1,2-dihydroisoquinolin-3-yl)ethyl)amino)pyrido[2,3-d]pyrimidin-5(8H)-one], the inhibition at 0.01 µM in test [1] came out at 55%; in test [2] it was 42%.

In the case of `COCc1ncc(-c2cccc3c(Cl)c([C@H](C)Nc4ncnc5[nH]ccc(=O)c45)n(-c4ccccc4)c(=O)c23)cn1` [Example 55, (S)-4-((1-(4-chloro-8-(2-(methoxymethyl)pyrimidin-5-yl)-1-oxo-2-phenyl-1,2-dihydroisoquinolin-3-yl)ethyl)amino)pyrido[2,3-d]pyrimidin-5(8H)-one], the inhibition at 0.01 µM in test [1] came out at 59%; in test [2] it was 44%.

For the compound `C[C@H](Nc1ncnc2[nH]ccc(=O)c12)c1c(Cl)c2cccc(-c3cnc(N)nc3)c2c(=O)n1-c1ccccc1` [Example 56, (S)-4-((1-(8-(2-aminopyrimidin-5-yl)-4-chloro-1-oxo-2-phenyl-1,2-dihydroisoquinolin-3-yl)ethyl)amino)pyrido[2,3-d]pyrimidin-5(8H)-one], the inhibition at 0.01 µM in test [1] amounted to 81%; in test [2], 78%.

On to `CC(O)c1ccc(-c2cccc3c(Cl)c([C@H](C)Nc4ncnc5[nH]ccc(=O)c45)n(-c4ccccc4)c(=O)c23)cc1` (stereo partly drawn) [Example 57, 4-(((1S)-1-(4-chloro-8-(4-(1-hydroxyethyl)phenyl)-1-oxo-2-phenyl-1,2-dihydroisoquinolin-3-yl)ethyl)amino)pyrido[2,3-d]pyrimidin-5(8H)-one], for which the inhibition at 0.01 µM was 97% in test [1] and 80% in test [2].

On to `Cc1cc(-c2cccc3c(Cl)c([C@H](C)Nc4ncnc5[nH]ccc(=O)c45)n(-c4ccccc4)c(=O)c23)cnc1O` [Example 58, (S)-4-((1-(4-chloro-8-(6-hydroxy-5-methylpyridin-3-yl)-1-oxo-2-phenyl-1,2-dihydroisoquinolin-3-yl)ethyl)amino)pyrido[2,3-d]pyrimidin-5(8H)-one], for which the inhibition at 0.01 µM in test [1] came to 95%; in test [2], 87%.

Turning to `C[C@H](Nc1ncnc2[nH]ccc(=O)c12)c1c(Cl)c2cccc(-c3cncnc3C3CCCC3)c2c(=O)n1-c1ccccc1` [Example 59, (S)-4-((1-(4-chloro-8-(4-cyclopentylpyrimidin-5-yl)-1-oxo-2-phenyl-1,2-dihydroisoquinolin-3-yl)ethyl)amino)pyrido[2,3-d]pyrimidin-5(8H)-one], the inhibition at 0.01 µM in test [1] amounted to 70%; in test [2], 32%.

On to `C[C@H](Nc1ncnc2[nH]ccc(=O)c12)c1c(Cl)c2cccc(-c3ccc4c(c3)OCO4)c2c(=O)n1-c1ccccc1` [Example 60, (S)-4-((1-(8-(benzo[d][1,3]dioxol-5-yl)-4-chloro-1-oxo-2-phenyl-1,2-dihydroisoquinolin-3-yl)ethyl)amino)pyrido[2,3-d]pyrimidin-5(8H)-one], for which the inhibition at 0.01 µM in test [1] is 94%; in test [2], 74%.

`COc1ncc(-c2cccc3c(Cl)c([C@H](C)Nc4ncnc5[nH]ccc(=O)c45)n(-c4ccccc4)c(=O)c23)cc1[N+](=O)[O-]` [Example 61, (S)-4-((1-(4-chloro-8-(6-methoxy-5-nitropyridin-3-yl)-1-oxo-2-phenyl-1,2-dihydroisoquinolin-3-yl)ethyl)amino)pyrido[2,3-d]pyrimidin-5(8H)-one]: the inhibition at 0.01 µM in test [1] came to 89%; in test [2] it was 67%.

`C[C@H](Nc1ncnc2[nH]ccc(=O)c12)c1c(Cl)c2cccc(-c3ccccc3)c2c(=O)n1-c1ccccc1` [Example 62, (S)-4-((1-(4-chloro-1-oxo-2,8-diphenyl-1,2-dihydroisoquinolin-3-yl)ethyl)amino)pyrido[2,3-d]pyrimidin-5(8H)-one]: in test [1], the inhibition at 0.01 µM was determined as 99% and the inhibition at 0.1 µM amounted to 109%. Besides, in test [2], the inhibition at 0.01 µM worked out at 54% and the inhibition at 0.1 µM is 89%.

For `C[C@H](Nc1ncnc2[nH]ccc(=O)c12)c1c(Cl)c2cccc(-c3ccc(F)cc3)c2c(=O)n1-c1ccccc1` [Example 63, (S)-4-((1-(4-chloro-8-(4-fluorophenyl)-1-oxo-2-phenyl-1,2-dihydroisoquinolin-3-yl)ethyl)amino)pyrido[2,3-d]pyrimidin-5(8H)-one], in test [1], the inhibition at 0.01 µM worked out at 95% and the inhibition at 0.1 µM amounted to 96%. Also, in test [2], the inhibition at 0.01 µM amounted to 44% and the inhibition at 0.1 µM was 84%.

`COc1ccc(-c2cccc3c(Cl)c([C@H](C)Nc4ncnc5[nH]ccc(=O)c45)n(-c4ccccc4)c(=O)c23)cc1` [Example 64, (S)-4-((1-(4-chloro-8-(4-methoxyphenyl)-1-oxo-2-phenyl-1,2-dihydroisoquinolin-3-yl)ethyl)amino)pyrido[2,3-d]pyrimidin-5(8H)-one]: in test [1], the inhibition at 0.01 µM is 93% and the inhibition at 0.1 µM worked out at 101%. In test [2], the inhibition at 0.01 µM was determined as 51% and the inhibition at 0.1 µM worked out at 86%.

As to `C[C@H](Nc1ncnc2[nH]ccc(=O)c12)c1c(C2CC2)c2cccc(Cl)c2c(=O)n1-c1ccccc1` [Example 65, (S)-4-((1-(8-chloro-4-cyclopropyl-1-oxo-2-phenyl-1,2-dihydroisoquinolin-3-yl)ethyl)amino)pyrido[2,3-d]pyrimidin-5(8H)-one], the inhibition at 0.01 µM is 89% in test [1] and 58% in test [2]. In addition, the inhibition at 0.1 µM was found to be 110% in test [1] and 90% in test [2].

As to `C[C@H](Nc1ncnc2[nH]ccc(=O)c12)c1c(Cl)c2cccc(C3CC3)c2c(=O)n1-c1ccccc1` [Example 66, (S)-4-((1-(4-chloro-8-cyclopropyl-1-oxo-2-phenyl-1,2-dihydroisoquinolin-3-yl)ethyl)amino)pyrido[2,3-d]pyrimidin-5(8H)-one], in test [1], the inhibition at 0.01 µM stood at 72% and the inhibition at 0.1 µM was found to be 103%. For the same compound, in test [2], the inhibition at 0.01 µM came out at 59% and the inhibition at 0.1 µM came out at 92%.

Usually inhibition stands for the drop in the measured response relative to a control, in per cent.

The values above are taken from patent US20230072683A1, “PYRIDO-PYRIMIDIN DERIVATIVES AND PHARMACEUTICAL COMPOSITION, FOR USE IN PREVENTING OR TREATING PI3 KINASE RELATED DISEASES, COMPRISING SAME AS ACTIVE INGREDIENT” (BORYUNG PHARMACEUTICAL CO., LTD, priority 2019, published 2023).
